Source: patent US7432264B2, “Antimicrobial biaryl compounds” (Isis Pharmaceuticals, Inc., priority 2000, dated 2008)
Converted amounts (≈) assume the structure as drawn. Each block holds one compound with its values, some of them ahead of it.

Key:
[1] = system: E. coli S30 bacterial extract (protein synthesis); assay type: biochemical
Procedure: Coupled Bacterial Transcription/Translation Assay. The DNA template, pBestLuc™ (Promega), is a plasmid containing a reporter gene for firefly luciferase fused to a strong tac promoter and ribosome binding site. Messenger RNA from 1 μg pBestLuc was transcribed and translated in E. coli S30 bacterial extract in the presence or absence of test compound. Compounds were tested in a black 96 well microtiter plate with an assay volume of 35 μL. Each test well contained: 5 μL test compound, 13 μL S30 premix (Promega), 4 μL 10× complete amino acid mix (1 mM each), 5 μL E. coli S30 extract and 8 μL of […] pBestLuc™. The transcription/translation reaction was incubated for 35 minutes at 37° C. followed by detection of functional luciferase with the addition of 30 μL LucLite™ (Packard). Light output was quantitated on a Packard TopCount.

[2] = system: E. coli ATCC 25922; test: Minimum inhibitory concentration (MIC), E. coli; assay type: cell-based, Escherichia coli
Procedure: (§1) Bacterial Strains. The Streptococcus pyogenes strains, Klebsiella pneumoniae, Escherichia coli, Staphylococcus aureus, Enterococcus faecalis used in the antibacterial activity studies ATCC 14289, 49399, 13883, 25922, 13709, 29212, respectively, are obtained from the American Type Culture Collection, Rockville, Md. The strain E. coli imp— is a mutant strain of wild type E. coli with increased outer membrane permeability and was grown in LB broth at 37 °C. S. pyogenes strain is grown in Todd-Hewitt broth. S. aureus is grown in trypticase soy broth, E. faecalis in Todd-Hewitt broth, wild type E. coli and K. pneumoniae, in nutrient broth.
(§2) Determination of Minimum Inhibitory Concentrations (MICs). The assays were carried out in […] volume in duplicate in 96-well clear flat-bottom plates. The bacterial suspension from an overnight culture growth in appropriate medium was added to a solution of test compound in 4% DMSO in water. Final bacterial inoculum was approximately 10^5-10^6 CFU/well. The percent growth of the bacteria in test wells relative to that observed for a well containing no compound was determined by measuring absorbance at 595 nm (A595) after 24 h. […] Both ampicillin and tetracycline is used as antibiotic-positive controls in each screening assay for S. pyogenes, E. coli imp-, E. coli, S. aureus, E. faecalis, K pneumoniae and P. vulgaris. Ciprofloxacin is used as an antibiotic positive control in each screening assay for P. aeruginosa.

[3] = system: S. aureus ATCC 13709; test: Minimum inhibitory concentration (MIC), S. aureus; assay type: cell-based, Staphylococcus aureus
Procedure: as §1, §2

[4] = system: E. faecalis ATCC 29212; test: MIC, Enterococcus faecalis; assay type: cell-based
Procedure: as §1
as §2, with “Ciprofloxacin is used as an antibiotic positive control in each screening assay for P. aeruginosa.” left out

[5] = system: S. pyogenes ATCC 49399; test: MIC, Streptococcus pyogenes; assay type: cell-based
Procedure: as §1
as §2, with “Ciprofloxacin is used as an antibiotic positive control in each screening assay for P. aeruginosa.” left out

[6] = system: K pneumoniae ATCC 13383; test: MIC, Klebsiella pneumoniae; assay type: cell-based
Procedure: as §1
as §2, with “Ciprofloxacin is used as an antibiotic positive control in each screening assay for P. aeruginosa.” left out

[7] = system: P. vulgaris ATCC 8427; test: MIC, Proteus vulgaris; assay type: cell-based
Procedure: as §2

[8] = system: methicillin resistant S. aureus ATCC43300; test: MIC, methicillin-resistant S. aureus; assay type: cell-based, Staphylococcus aureus
Procedure: as §2

[9] = system: eukaryotic protein synthesis; test: Eukaryotic protein synthesis, cell-free assay; assay type: biochemical; conditions: at 200:M
Description: The biphenyl substitution improves in vitro antibacterial […] 4-fold compared to the phenyl substitution (34 versus 26). […] Biaryl 34 was selected to be evaluated against some additional bacterial strains. […] See Kung, P.-P.; Casper, M. D.; Cook, K. L.; Wilson-Lingardo, L.; Risen, L. M.; Vickers, T. A.; Ranken, R.; Blyn, L. B.; Wyatt, J. R.; Cook, P. D.; Ecker, D. J. J. Med. Chem. 1999, 42, 4705-4713.

[10] = target: A1061 23S rRNA MS screening construct; test: Mass-spec binding assay (SAR by MS, ESI-FTICR-MS); set-up: species or system E. coli
Procedure: Binding affinity of test compounds to a 58 nucleotide fragment of E. coli 23S ribosomal RNA (23S rRNA) was determined using electrospray ionization Fourier transform ion cyclotron resonance mass spectrometry (ESI-FTICR-MS). The structure of the 23S rRNA fragment and its preparation is described by Conn et al (Science, 1999, 284(5417):1171) and Hinck et al (J. Mol. Biol., 1997, 274(1):101) both incorporated herein by reference. The mass spec assay determined the exact chemical composition of ligands that bound to the target rRNA and determined relative or absolute dissociation (KD) of ligands for the target. In the first step of the assay, a mixture of 23S rRNA target and test compound were moved from solution into the gas phase by electrospray ionization. The FT-ICR mass spectrometer served as a parallel set of “scales”, simultaneously measuring the exact molecular masses of the small molecules that bound to the RNA with great accuracy. The mass measurement error for an RNA-ligand complex weighing 10 kDa equals the mass of an electron. At this level of mass accuracy, each compound in the mixture was “labeled” by its molecular formula and exact molecular mass. […]

SMILES: CN(C)CCCOc1ccc(C(NC(=O)c2ccc(-c3cccc(NC(=O)c4ccc(-c5ccccc5)cc4)c3)o2)C(=O)N2CCNCC2)cc1 (centres unmarked) [Compound 34]
fold improvement compared to the phenyl substitution (26) ([1]; 34 versus 26): 4 fold
MIC E. coli ([2]; E. coli ATCC 25922): 6-13 :M
MIC ([2]; Escherichia coli, ATCC25922, 24 h, read-out: MIC (E. coli)): 6 to 13 mM (≈ 4110 to 8920 µg/mL)
MIC S. aureus ([3]; S. aureus ATCC 13709): 3-6 :M
MIC ([3]; Staphylococcus aureus, ATCC13709, 24 h, read-out: MIC (S. aureus)): 6 to 13 mM (≈ 4110 to 8920 µg/mL)
MIC Enterococcus faecalis [4]: 3-6 :M
MIC Streptococcus pyogenes [5]: 3-6 :M
MIC Klebsiella pneumoniae [6]: 13-25 :M
MIC Proteus vulgaris [7]: 50-100 :M
MIC methicillin-resistant S. aureus strain [8]: 13-25 :M
inhibition of eukaryotic protein synthesis [9]: not to inhibit

SMILES: CN(C)CCCOc1ccc(C(NC(=O)c2ccc(-c3cccc(NC(=O)c4ccc5[nH]c(=O)c(=O)[nH]c5c4)c3)o2)C(N)=O)cc1 (centres unmarked) [Compound 21]
fold less potent than 12 ([1]; versus 12): ~3 fold

Kd [10]: 50 µM
SMILES: NCC[C@@H](NC(=O)c1ccco1)C(=O)N1CCNCC1

SMILES: CN(C)CCCOc1ccc(C(NC(=O)c2ccc3[nH]c(=O)c(=O)[nH]c3c2)C(=O)N2CCNCC2)cc1 (centres unmarked) [Compound 22]
activity in bacterial protein synthesis assay at 200:M ([1]; at 200:M): inactive
